Assay results: patent EP3797781A1, “USE OF EC-7072 AND SYNERGIC COMPOSITIONS THEREOF IN TREATMENT OF CHRONIC LYMPHOCYTIC LEUKEMIA” (priority 2019, dated 2021)

Tests used:
[1] = tested on: MEC-1 cells; experiment: Immunoblot of phosphorylated and total STAT3 in MEC-1 cells; format: cell-based; conditions: 200 nM, 0-, 3-, 8- and 12-hour time points; reduction of p-STAT3
[2] = tested on: BCR signaling pathway; experiment: Phosphoflow of BCR signaling nodes in isolated leukemia cells; format: cell-based, human
Method: Protein phosphorylation levels were evaluated by phosphoflow. Briefly, isolated leukemia cells from patients with CLL were treated with 200 nM EC-7072 or DMSO for 8 or 12 hours. In some experiments, BCR signaling was activated with goat F(ab')2 anti-IgM antibody (10 µg/mL; SouthernBiotech) for 45 minutes. Right afterwards, cells were fixed with 1.8% paraformaldehyde for 10 minutes at RT and permeabilized with 90% ice-cold methanol for 25 minutes at 4 °C. Finally, cells were incubated with specific phospho-antibodies (p-SYK, p-BTK, p-ERK1/2 and p-H2AX from Biolegend, and p-PLCγ2, p-AKT, p-p65 NF-κB and p-STAT3 from BD Bioscience) for 30 minutes at RT and mean fluorescence intensity (MFI) was analyzed by flow cytometry.
The inhibition of the tonic BCR pathway by EC-7072 was evaluated by: • (i) incubating PBMCs from patients with CLL, following treatment with 200 nM EC-7072, for 8 hours. Surface expression of CD79A (Figure 7A), CD79B (Figure 7B) and IgM (Figure 7C) in leukemia cells (n = 5 - 6) was assessed by flow cytometry and the MFI was normalized to the control (DMSO) condition; • (ii) incubating isolated leukemia cells from patients with CLL (n = 10), following treatment with EC-7072 (200 nM), for 8 hours. Phosphorylation levels of p-SYK (Figure 7D), p-BTK (Figure 7E) and p-PLCy2 (Figure 7F) proteins and p-ERK1/2 (Figure 7G), p-AKT (Figure 7H), p-p65 NPκB (Figure 7I) and p-STAT3 (Figure 7J) were evaluated by phosphoflow and the MFI was normalized to the control (DMSO) from each individual patient; • (iii) incubating PBMCs from patients with CLL (n = 8), following treatment with EC-7072 (200 nM), for 8 hours. Viability was determined by DiOC6(3)/PI staining and normalized to the control (DMSO) condition for each individual patient to obtain the mean percentage of viable [DiOC6(3)^+] cells (Figure 7K); • (iv) incubating isolated CLL cells (n = 4) stimulated with CD40L (100 ng/mL) or IL-6 (40 ng/mL) for 15 minutes and detecting respective phosphorylation levels of p65 NF-κB (Figure 7L) and STAT3 (Figure 7M) by phosphoflow to obtain the mean MFI normalized to the control (DMSO) condition for each individual patient; • (v) incubating isolated leukemia cells from 3 patients with CLL, following treatment with 200 nM EC-7072, for 3, 8 and 12 hours. […]
The partial abrogation of EC-7072-induced cell death of primary CLL cells by activation of the BCR was evaluated by: • (i) incubating PBMCs from patients with CLL (n = 15), following treatment with EC-7072 (200 nM) in combination with α-IgM (10 µg/mL), for 24 hours. […]

## CO[C@@H]([C@@H]1Cc2cc3cc(O[C@H]4C[C@@H](O[C@H]5C[C@@H](O)[C@H](O)[C@@H](C)O5)[C@H](O)[C@@H](C)O4)c(C)c(O)c3c(O)c2C(=O)[C@H]1O[C@H]1C[C@@H](O[C@H]2C[C@@H](O[C@H]3C[C@](C)(O)[C@H](O)[C@@H](C)O3)[C@@H](O)[C@@H](C)O2)[C@H](O)[C@@H](C)O1)[C@@H](O)C(C)=O [EC-7072, mithramycin SK]
[1]
  levels of p-STAT3 in MEC-1: further confirmed
[2]; 200 nM, 8 hours, n = 10
  amounts of p-AKT: No marked changes
  levels of phosphorylated (p)-SYK, p-BTK and p-PLCγ2: significant reduction
  phosphorylation levels of ERK1/2, p65 NF-κB and STAT3: significant downregulation
[2]; EC-7072 200 nM 8 hours, then α-IgM (10 µg/mL) 15 minutes
  phosphorylation of ERK1/2, AKT, p65 NF-κB and STAT3 ensued by anti-IgM: not significantly reverted
